ChEMBL document CHEMBL5291721, “A preclinical secondary pharmacology resource illuminates target-adverse drug reaction associations of marketed drugs” (Nat Commun, 2023)

Columns and labels:
[1] = target: Beta-2 adrenergic receptor (Homo sapiens, UniProt P07550)
[2] = target: Glutamate receptor ionotropic, NMDA 1 (Rattus norvegicus, UniProt P35439)
[3] = target: Motilin receptor (Homo sapiens, UniProt O43193)
[4] = target: Melanocortin receptor 3 (Homo sapiens, UniProt P41968)
[5] = target: T1, 5-hydroxytryptamine receptor 3A (Homo sapiens, UniProt P46098); format: functional
T1 sequence (P46098 whole entry): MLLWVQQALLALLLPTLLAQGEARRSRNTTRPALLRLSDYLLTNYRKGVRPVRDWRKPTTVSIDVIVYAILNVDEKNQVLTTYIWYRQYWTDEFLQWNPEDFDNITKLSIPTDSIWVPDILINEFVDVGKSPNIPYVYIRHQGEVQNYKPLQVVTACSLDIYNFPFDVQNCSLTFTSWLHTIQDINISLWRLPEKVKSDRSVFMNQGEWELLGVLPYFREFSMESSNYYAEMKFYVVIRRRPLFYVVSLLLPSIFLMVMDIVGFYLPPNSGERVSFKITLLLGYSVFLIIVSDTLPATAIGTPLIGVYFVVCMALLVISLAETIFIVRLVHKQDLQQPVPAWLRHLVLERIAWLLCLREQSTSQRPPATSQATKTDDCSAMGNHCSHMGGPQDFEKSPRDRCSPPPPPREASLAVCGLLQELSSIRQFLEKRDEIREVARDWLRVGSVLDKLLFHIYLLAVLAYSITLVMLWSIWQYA

[6] = target: Cannabinoid receptor 1 (Homo sapiens, UniProt P21554); format: functional, cell-based
Chain of Cannabinoid receptor 1 (P21554 whole entry): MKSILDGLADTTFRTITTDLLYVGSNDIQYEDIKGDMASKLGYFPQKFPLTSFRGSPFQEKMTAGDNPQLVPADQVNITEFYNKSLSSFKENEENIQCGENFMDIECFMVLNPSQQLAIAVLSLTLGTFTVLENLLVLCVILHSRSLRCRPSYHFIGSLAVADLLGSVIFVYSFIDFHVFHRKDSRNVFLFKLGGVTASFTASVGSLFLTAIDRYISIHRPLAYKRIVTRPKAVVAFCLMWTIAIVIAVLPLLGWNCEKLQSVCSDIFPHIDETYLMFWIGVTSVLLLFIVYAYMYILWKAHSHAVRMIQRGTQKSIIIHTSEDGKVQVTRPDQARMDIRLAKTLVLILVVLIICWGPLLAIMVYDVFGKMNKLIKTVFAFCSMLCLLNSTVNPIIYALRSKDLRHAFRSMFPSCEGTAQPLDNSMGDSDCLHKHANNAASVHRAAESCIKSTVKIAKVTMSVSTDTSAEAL

[7] = target: D(3) dopamine receptor (Homo sapiens, UniProt P35462)
Chain of D(3) dopamine receptor (P35462 whole entry): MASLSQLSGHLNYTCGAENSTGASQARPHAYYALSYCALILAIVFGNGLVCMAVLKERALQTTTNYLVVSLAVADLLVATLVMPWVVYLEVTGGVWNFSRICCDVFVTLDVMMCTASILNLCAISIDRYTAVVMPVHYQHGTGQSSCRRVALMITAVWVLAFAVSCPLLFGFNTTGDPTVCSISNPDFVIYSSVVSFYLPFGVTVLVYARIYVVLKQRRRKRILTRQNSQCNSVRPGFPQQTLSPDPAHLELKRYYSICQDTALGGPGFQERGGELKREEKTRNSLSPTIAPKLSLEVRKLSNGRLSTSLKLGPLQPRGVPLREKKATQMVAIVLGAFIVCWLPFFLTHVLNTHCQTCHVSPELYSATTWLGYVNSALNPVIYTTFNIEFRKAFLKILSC

[8] = target: Voltage-dependent L-type calcium channel subunit alpha-1C (Rattus norvegicus, UniProt P22002); format: functional
Chain of Voltage-dependent L-type calcium channel subunit alpha-1C (P22002 whole entry): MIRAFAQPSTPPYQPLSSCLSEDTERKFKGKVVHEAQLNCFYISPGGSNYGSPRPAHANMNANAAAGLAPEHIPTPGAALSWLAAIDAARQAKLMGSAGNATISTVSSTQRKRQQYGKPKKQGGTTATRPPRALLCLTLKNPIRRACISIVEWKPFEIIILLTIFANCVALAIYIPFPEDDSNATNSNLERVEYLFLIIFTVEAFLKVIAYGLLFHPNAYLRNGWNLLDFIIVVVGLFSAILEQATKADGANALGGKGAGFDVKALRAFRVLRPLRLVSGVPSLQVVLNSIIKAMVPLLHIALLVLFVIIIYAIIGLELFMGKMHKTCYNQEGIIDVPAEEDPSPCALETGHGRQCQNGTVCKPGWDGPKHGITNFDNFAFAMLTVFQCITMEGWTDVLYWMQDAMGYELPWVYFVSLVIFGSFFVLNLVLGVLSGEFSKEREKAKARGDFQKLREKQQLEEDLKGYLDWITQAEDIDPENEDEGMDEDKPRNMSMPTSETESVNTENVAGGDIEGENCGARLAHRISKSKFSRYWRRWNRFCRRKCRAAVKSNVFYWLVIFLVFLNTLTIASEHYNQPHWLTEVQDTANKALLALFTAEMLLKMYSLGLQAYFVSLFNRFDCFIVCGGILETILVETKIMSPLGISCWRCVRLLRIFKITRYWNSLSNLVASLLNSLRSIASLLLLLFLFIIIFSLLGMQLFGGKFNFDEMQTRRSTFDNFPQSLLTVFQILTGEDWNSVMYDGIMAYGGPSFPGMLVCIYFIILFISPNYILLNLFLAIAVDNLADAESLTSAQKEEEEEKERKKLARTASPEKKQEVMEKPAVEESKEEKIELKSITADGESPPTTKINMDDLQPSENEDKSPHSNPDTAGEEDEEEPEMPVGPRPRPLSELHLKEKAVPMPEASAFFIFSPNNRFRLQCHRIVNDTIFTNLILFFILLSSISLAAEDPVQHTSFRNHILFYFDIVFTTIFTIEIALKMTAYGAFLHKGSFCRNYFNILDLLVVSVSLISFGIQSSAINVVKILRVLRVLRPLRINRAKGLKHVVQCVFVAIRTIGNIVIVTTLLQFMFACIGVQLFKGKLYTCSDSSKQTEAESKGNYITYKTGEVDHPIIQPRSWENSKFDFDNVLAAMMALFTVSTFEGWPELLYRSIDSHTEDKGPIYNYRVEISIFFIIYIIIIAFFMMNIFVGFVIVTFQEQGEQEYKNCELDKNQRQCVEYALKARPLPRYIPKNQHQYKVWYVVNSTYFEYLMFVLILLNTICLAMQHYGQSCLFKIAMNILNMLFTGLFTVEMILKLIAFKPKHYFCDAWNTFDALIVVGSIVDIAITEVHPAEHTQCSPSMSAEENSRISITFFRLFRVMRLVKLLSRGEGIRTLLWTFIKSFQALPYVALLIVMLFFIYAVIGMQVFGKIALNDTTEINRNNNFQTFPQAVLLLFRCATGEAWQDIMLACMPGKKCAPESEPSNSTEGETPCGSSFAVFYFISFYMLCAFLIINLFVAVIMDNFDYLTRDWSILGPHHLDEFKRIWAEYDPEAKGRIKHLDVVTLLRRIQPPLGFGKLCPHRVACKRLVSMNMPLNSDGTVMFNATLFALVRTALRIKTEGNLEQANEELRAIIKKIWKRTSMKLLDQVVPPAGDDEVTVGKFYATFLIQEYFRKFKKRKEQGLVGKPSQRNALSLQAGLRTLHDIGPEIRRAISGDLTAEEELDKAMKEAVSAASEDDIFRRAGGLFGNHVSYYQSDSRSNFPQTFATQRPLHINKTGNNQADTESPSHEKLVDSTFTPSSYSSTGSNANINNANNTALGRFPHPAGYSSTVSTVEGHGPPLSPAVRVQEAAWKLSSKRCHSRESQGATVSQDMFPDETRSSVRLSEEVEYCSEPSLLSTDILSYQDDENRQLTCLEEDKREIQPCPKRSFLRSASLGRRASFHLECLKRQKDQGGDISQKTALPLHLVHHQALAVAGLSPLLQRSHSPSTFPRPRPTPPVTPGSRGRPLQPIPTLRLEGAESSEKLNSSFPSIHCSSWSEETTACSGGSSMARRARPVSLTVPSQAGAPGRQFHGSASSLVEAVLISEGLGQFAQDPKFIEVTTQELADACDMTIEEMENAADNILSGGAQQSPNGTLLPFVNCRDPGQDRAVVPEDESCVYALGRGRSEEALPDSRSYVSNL

[9] = target: 5-hydroxytryptamine receptor 2A (Homo sapiens, UniProt P28223); format: functional, cell-based
Chain of 5-hydroxytryptamine receptor 2A (P28223 whole entry): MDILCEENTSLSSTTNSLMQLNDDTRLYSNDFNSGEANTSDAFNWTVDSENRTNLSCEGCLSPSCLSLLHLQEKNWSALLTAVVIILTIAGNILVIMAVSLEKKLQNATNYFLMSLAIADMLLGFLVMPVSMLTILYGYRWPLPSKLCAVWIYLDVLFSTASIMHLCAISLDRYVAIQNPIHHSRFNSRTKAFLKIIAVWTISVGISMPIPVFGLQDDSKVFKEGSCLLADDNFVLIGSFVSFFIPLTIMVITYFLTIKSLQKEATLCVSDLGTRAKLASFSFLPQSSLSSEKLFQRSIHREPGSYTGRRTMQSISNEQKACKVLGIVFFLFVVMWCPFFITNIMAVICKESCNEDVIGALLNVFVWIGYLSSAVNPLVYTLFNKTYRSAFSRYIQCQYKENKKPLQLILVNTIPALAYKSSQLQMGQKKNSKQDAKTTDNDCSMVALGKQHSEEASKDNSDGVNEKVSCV

[10] = target: T2, Estrogen receptor (Homo sapiens, UniProt P03372)
T2 sequence (P03372 whole entry): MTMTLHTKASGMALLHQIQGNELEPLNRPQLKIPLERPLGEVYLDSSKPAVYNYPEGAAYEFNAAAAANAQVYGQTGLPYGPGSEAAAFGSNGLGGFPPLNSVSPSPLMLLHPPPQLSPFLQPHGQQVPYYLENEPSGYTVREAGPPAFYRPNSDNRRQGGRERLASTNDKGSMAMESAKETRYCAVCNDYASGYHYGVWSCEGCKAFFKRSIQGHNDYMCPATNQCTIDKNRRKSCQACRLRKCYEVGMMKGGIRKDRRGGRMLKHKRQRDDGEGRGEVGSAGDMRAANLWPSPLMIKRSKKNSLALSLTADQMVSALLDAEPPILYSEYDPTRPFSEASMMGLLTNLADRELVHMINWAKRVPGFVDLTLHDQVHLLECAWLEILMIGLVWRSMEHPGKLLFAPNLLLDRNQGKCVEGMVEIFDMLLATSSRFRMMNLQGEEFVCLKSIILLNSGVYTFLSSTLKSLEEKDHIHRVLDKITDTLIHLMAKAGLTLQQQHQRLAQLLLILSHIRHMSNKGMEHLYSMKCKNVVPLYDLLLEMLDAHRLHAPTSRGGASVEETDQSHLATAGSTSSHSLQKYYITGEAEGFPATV

[11] = target: Sodium-dependent noradrenaline transporter (Homo sapiens, UniProt P23975)
[12] = target: T3, Progesterone receptor (Homo sapiens, UniProt P06401); format: functional
T3 sequence (P06401 whole entry): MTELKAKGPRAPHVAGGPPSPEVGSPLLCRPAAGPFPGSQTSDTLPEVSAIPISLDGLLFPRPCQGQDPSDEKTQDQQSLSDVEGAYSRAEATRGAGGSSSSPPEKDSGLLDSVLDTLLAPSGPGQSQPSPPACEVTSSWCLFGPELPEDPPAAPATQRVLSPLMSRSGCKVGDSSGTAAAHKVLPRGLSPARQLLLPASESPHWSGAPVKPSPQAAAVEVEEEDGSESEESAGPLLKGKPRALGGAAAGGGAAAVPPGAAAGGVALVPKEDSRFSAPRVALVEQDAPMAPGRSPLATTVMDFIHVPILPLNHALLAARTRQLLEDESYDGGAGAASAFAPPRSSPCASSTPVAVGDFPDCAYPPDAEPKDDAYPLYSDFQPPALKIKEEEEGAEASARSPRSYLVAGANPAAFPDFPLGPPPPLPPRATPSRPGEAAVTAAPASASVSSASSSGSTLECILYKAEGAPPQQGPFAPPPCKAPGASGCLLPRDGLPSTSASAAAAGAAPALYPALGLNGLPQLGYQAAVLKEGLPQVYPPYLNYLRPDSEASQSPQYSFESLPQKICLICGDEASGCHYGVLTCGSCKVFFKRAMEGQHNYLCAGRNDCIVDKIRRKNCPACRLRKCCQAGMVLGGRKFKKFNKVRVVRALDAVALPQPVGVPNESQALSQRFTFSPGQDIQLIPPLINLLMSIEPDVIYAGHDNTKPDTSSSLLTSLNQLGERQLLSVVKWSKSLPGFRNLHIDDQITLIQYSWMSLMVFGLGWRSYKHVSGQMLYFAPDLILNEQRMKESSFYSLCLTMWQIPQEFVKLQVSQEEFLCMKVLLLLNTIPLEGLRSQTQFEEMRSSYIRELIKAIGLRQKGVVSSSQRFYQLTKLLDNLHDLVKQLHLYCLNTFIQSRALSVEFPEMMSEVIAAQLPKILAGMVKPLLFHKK

[13] = target: T4, Endothelin-1 receptor (Homo sapiens, UniProt P25101)
T4 sequence (P25101 whole entry): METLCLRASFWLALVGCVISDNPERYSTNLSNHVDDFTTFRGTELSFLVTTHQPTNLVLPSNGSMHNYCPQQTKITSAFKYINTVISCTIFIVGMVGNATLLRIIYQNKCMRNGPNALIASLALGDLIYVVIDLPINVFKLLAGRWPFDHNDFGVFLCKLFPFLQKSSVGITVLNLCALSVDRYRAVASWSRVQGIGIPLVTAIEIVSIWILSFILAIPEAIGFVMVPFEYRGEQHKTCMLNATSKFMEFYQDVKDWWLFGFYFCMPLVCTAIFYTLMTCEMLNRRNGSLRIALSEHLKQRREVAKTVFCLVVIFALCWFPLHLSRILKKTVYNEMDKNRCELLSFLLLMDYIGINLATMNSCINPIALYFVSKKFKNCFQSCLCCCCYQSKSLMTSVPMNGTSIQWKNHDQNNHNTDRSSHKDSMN
Also: assay procedure not described here.

Chain of Melanocortin receptor 3 (P41968 whole entry): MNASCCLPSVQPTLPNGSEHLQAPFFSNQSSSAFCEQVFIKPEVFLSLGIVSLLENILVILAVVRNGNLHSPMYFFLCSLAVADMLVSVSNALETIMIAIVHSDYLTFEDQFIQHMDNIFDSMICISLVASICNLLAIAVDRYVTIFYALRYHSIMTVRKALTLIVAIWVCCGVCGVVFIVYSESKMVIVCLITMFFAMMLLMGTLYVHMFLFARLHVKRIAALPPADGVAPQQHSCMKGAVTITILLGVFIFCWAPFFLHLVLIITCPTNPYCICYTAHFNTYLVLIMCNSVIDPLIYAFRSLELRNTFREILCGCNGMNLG
Chain of Motilin receptor (O43193 whole entry): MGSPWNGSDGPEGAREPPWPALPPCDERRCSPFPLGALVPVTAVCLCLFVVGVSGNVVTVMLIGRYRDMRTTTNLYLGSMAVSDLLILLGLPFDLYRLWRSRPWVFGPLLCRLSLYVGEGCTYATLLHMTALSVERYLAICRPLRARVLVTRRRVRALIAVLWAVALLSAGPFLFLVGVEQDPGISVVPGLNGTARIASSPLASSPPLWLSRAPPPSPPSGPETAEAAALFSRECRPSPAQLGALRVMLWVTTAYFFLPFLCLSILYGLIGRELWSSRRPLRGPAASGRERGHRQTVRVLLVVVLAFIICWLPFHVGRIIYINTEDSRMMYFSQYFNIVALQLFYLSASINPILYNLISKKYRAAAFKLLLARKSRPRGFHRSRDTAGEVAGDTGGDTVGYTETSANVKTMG
Chain of Beta-2 adrenergic receptor (P07550 whole entry): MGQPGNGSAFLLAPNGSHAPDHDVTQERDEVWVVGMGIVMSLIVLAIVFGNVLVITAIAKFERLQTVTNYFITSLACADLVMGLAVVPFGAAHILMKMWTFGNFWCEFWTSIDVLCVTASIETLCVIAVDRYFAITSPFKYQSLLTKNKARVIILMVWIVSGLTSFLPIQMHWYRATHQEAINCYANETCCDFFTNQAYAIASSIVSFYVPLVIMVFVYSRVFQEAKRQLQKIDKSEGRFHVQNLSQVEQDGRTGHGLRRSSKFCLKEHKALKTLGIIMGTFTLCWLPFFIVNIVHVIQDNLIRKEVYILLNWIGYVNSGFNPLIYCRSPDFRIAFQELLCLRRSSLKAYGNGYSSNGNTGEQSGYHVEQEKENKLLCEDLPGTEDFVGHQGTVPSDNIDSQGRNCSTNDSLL

Row | Structure (SMILES) | AC50 [1] | AC50 [2] | AC50 [3] | AC50 [4] | AC50 [5] | AC50 [6] | AC50 [7] | AC50 [8] | AC50 [9] | AC50 [10] | AC50 [11] | AC50 [12] | AC50 [13]
1 | CN1CC(=O)N2[C@H](c3ccc4c(c3)OCO4)c3[nH]c4ccccc4c3C[C@@H]2C1=O | > 10 µM | > 10 µM | > 10 µM | > 30 µM | > 30 µM | > 30 µM | > 30 µM | > 10 µM | > 30 µM | > 30 µM | > 30 µM | – | –
2 | CN1C(=O)COc2c(C(=O)NC3CN4CCC3CC4)cc(Cl)cc21 (configuration not stated) [AZASETRON] | > 30 µM | > 30 µM | > 30 µM | > 30 µM | 0.0162 µM | > 30 µM | > 30 µM | > 30 µM | – | > 30 µM | > 30 µM | > 30 µM | > 30 µM
3 | Cc1cc2c(OCC(CNC(C)(C)C)OC(=O)c3ccccc3)cccc2[nH]1 (configuration not stated) [BOPINDOLOL] | 0.0064 µM | > 30 µM | 23 µM | > 30 µM | > 30 µM | > 30 µM | > 30 µM | > 30 µM | – | > 30 µM | 10.3 µM | > 30 µM | > 30 µM
4 | CC(C)(Oc1ccc(C2CC2(Cl)Cl)cc1)C(=O)O (configuration not stated) [CIPROFIBRATE] | > 30 µM | > 30 µM | > 30 µM | > 30 µM | > 30 µM | > 30 µM | > 30 µM | > 30 µM | – | > 30 µM | > 30 µM | > 30 µM | > 30 µM
5 | Cc1c(O)c(=O)ccn1C [DEFERIPRONE] | > 30 µM | > 30 µM | > 30 µM | > 30 µM | > 30 µM | > 30 µM | > 30 µM | > 30 µM | – | > 30 µM | > 30 µM | > 30 µM | > 30 µM
6 | CCCCOc1cc(C(=O)NCCN(CC)CC)c2ccccc2n1 [DIBUCAINE] | > 10 µM | > 10 µM | > 30 µM | > 30 µM | > 30 µM | > 30 µM | > 30 µM | > 10 µM | > 10 µM | – | > 10 µM | > 10 µM | –
7 | COC(=O)C1=C(C)NC(C)=C(C(=O)OC(C)C)C1c1cccc2nonc12 (configuration not stated) [ISRADIPINE] | > 10 µM | > 10 µM | 14.7 µM | > 30 µM | > 30 µM | – | > 30 µM | 0.0045 µM | > 10 µM | – | > 30 µM | > 30 µM | –
8 | Cc1cccc(C)c1NC(=O)C1CCCCN1C (configuration not stated) [MEPIVACAINE] | – | > 30 µM | > 30 µM | > 30 µM | > 30 µM | > 30 µM | > 30 µM | – | – | > 30 µM | > 30 µM | > 30 µM | > 30 µM
9 | C[C@]12CCC(=O)C=C1CC[C@@H]1[C@@H]2CC[C@@]2(C)[C@H]1CC[C@]2(C)O [METHYLTESTOSTERONE] | > 30 µM | > 30 µM | > 30 µM | > 30 µM | > 30 µM | > 30 µM | > 30 µM | > 30 µM | – | > 30 µM | > 30 µM | 0.2 µM | > 30 µM
10 | COc1c(C)c2c(c(O)c1C/C=C(\C)CCC(=O)OCCN1CCOCC1)C(=O)OC2 [MYCOPHENOLATE MOFETIL] | > 30 µM | > 30 µM | > 30 µM | > 30 µM | > 30 µM | > 30 µM | > 30 µM | > 30 µM | – | > 30 µM | > 30 µM | > 30 µM | > 30 µM
11 | CN1C(=O)CC(c2ccccc2)C1=O (configuration not stated) [PHENSUXIMIDE] | > 10 µM | > 10 µM | > 10 µM | > 10 µM | > 30 µM | > 30 µM | > 30 µM | > 10 µM | > 10 µM | – | > 10 µM | > 10 µM | –
12 | CC(Cc1ccccc1)NCCC(c1ccccc1)c1ccccc1 (configuration not stated) [PRENYLAMINE] | 3.5 µM | > 10 µM | > 10 µM | > 30 µM | > 30 µM | – | 2.4 µM | 4.28 µM | > 30 µM | > 30 µM | 2.3 µM | – | –
13 | C1COC(NC(C2CC2)C2CC2)=N1 [RILMENIDINE] | > 10 µM | > 10 µM | > 10 µM | > 30 µM | > 30 µM | > 30 µM | > 10 µM | > 10 µM | > 30 µM | > 30 µM | > 30 µM | – | –
14 | Nc1nc2ccc(OC(F)(F)F)cc2s1 [RILUZOLE] | – | > 30 µM | > 30 µM | > 30 µM | > 30 µM | > 30 µM | > 30 µM | – | – | > 30 µM | 19 µM | > 30 µM | > 30 µM
15 | CC[C@]1(O)C[C@@H]2CN(CCc3c([nH]c4ccccc34)[C@@](C(=O)OC)(c3cc4c(cc3OC)N(C)[C@H]3[C@@](O)(C(N)=O)[C@H](O)[C@]5(CC)C=CCN6CC[C@]43[C@@H]65)C2)C1 [VINDESINE] | > 30 µM | > 30 µM | 4.8 µM | > 30 µM | > 30 µM | – | > 30 µM | > 30 µM | – | > 30 µM | > 30 µM | > 30 µM | > 30 µM
